# Assay results reported in ChEMBL document CHEMBL5518193, “Discovery of N-alkyl-N-benzyl thiazoles as novel TRPC antagonists for the treatment of glioblastoma multiforme” (Eur J Med Chem, 2024).
# How the values were obtained:
# [1] = system: U-87 MG; test: Antitumor activity against human U87 cells xenografted in BALB/c nude mouse assessed as tumor growth inhibition at 50 mg/kg/day administered as liposome encapsulated form for 15 days and measured every 3 days by vernier caliper; format: functional, U-87MG ATCC; details: 360 h, time 15 day, read-out: TGI
# [2] = system: U-87 MG; test: Antiproliferative activity against human U87 cells assessed as reduction in cell viability incubated for 72 hrs by MTT assay; format: functional, cell-based, U-87MG ATCC
# [3] = Apparent clearance in BALB/c mouse at 25 mg/kg, ip administered as liposome encapsulated form and measured upto 24 hrs by LC-MS/MS analysis; format: ADME, organism-based; details: in vivo, read-out: CL(app) (converted)
# [4] = AUC (0 to t) in BALB/c mouse at 25 mg/kg, ip administered as liposome encapsulated form and measured upto 24 hrs by LC-MS/MS analysis; format: ADME, organism-based; details: in vivo
# [5] = system: LNCaP; test: Antiproliferative activity against human LNCaP cells assessed as reduction in cell viability incubated for 72 hrs by MTT assay; format: functional, cell-based
# [6] = Tmax in BALB/c mouse at 50 mg/kg, ip administered as liposome encapsulated form and measured upto 24 hrs by LC-MS/MS analysis; format: ADME, organism-based; details: in vivo
# [7] = AUC (0 to infinity) in BALB/c mouse at 12.5 mg/kg, ip administered as liposome encapsulated form and measured upto 24 hrs by LC-MS/MS analysis; format: ADME, organism-based; details: in vivo
# [8] = Selectivity index, ratio of IC50 for human LNCaP cells to IC50 for human U87 cells; format: functional
# [9] = Selectivity index, ratio of IC50 for human HCT-116 cells to IC50 for human U87 cells; format: functional
smiles,measurement,setting,value
NCCN(Cc1ccc2ccccc2c1)c1nc(C(=O)Nc2ccc(O)cc2)cs1,inhibition in vivo at 50 mg/kg/day,[1],49.4%
same,IC50,[2],5.7 µM
same,CL/F,[3],3.61 L/h/kg
same,AUC(0-t) at 24 h,[4],6.84 µg·h/mL
same,IC50,[5],8.3 µM
same,Tmax,[6],4 h
same,AUC(0-inf),[7],2.79 µg·h/mL
same,Ratio IC50,[8],2
same,Ratio IC50,[9],2
